Laboratory results published in US5382584A, “Adenosine re-uptake inhibiting derivatives of diphenyl oxazoles, thiazoles and imidazoles” (Bristol-Myers Squibb Company, priority 1994, dated 1995).
Structures can show the parent of a compound that is named as a salt.

Test: neuroprotective activity of single enantiomers (test not specified)
Text: A chiral synthetic procedure was also developed to provide single enantiomers of certain stereoisomeric compounds of Formula I. The procedure is illustrated in Scheme III. This synthesis results in a Formula I compound with a chiral center in the piperazine ring. […] While both enantiomers were neuroprotective, the S-(-)-enantiomer had about 30 times the activity of the R-(+)-enantiomer. [drawing 11]

Structure (SMILES)	neuroprotection	activity relative to the R-(+)-enantiomer (neuroprotective activity)
Cl.Cl.Cl.NC(=O)[C@H]1CN(Cc2nc(-c3ccccc3)c(-c3ccccc3)o2)CCN1CC(=O)Nc1c(Cl)cc(N)cc1Cl.O [R-(+)-enantiomer, R-(+)-2-(aminocarbonyl)-N-(4-amino-2,6-dichlorophenyl)-4-[(4,5-diphenyl-2-oxazolyl)methyl]-1-piperazineacetamide trihydrochloride monohydrate]	neuroprotective	
NC(=O)[C@@H]1CN(Cc2nc(-c3ccccc3)c(-c3ccccc3)o2)CCN1CC(=O)Nc1c(Cl)cc(N)cc1Cl [S-(-)-enantiomer, S-(-)-2-(aminocarbonyl)-N-(4-amino-2,6-dichlorophenyl)-4-[(4,5-diphenyl-2-oxazolyl)methyl]-1-piperazineacetamide Trihydrochloride]	neuroprotective	about 30 times
